Experimental data published in US11339175B2, “Thiol-based fluorescent probe for reactive species” (The Board of Trustees of the University of Illinois, priority 2018, dated 2022).

Assays:
[1] = reported value; cited from earlier work
[2] = Fluorescence turn-on response to HNO (Angeli's salt) in vitro
Description: (§1) FIG. 2. a) Fluorescence spectra of NitroxylFluor (2 μM) upon addition of AS (100 μM). b) Fluorescence kinetic trace of NitroxylFluor upon addition of 1 mM Angeli's salt, arrow indicates time of addition. c) Response of NitroxylFluor to various reactive oxygen, sulfur, and nitrogen species at concentrations of 100 μM (GSH was tested at 1 mM). Measurements were taken 15 minutes into treatment. d) Competition assays against various thiols. Control indicates no addition of Angeli's salt. Statistics are compared to the control. *, p<0.05; ***, p<0.001; p<0.0001. (n=3).
(§2) FIG. 4. The normalized fluorescence turn-on response of NitroxylBlue-1, -2, and -3 treated with a vehicle control and incubated in PBS at 37° C. are shown in black. The normalized fluorescence turn-on response of NitroxylBlue-1, -2, and -3 treated with 100 μM Angeli's salt are shown in green. All data was taken 10 minutes after treatment. Statistical significance measured with respect to the corresponding control. *, p<0.05; **, p<0.01. (n=3).
Angeli's salt was stored at −20° C. Stocks of Angeli's salt were added as a 10 mM solution in 10 mM KOH (for stability). Hydrogen peroxide was added as a 10 mM stock solution prepared by diluting 30% hydrogen peroxide in deionized water. Superoxide was added as a 1 mM stock solution of potassium superoxide in DMSO (for stability). […]

[3] = Stability in aqueous media: background fluorescence turn-on with vehicle control; assay type: physicochemical; conditions: PBS
Description: as §2
FIG. 5. The normalized fluorescence turn-on response of S-methyl NitroxylBlue treated with vehicle control (black) or Angeli's salt (100 μM) and incubated in PBS at 25° C. All data was taken 15 minutes after treatment.

[4] = Selectivity against reactive oxygen, sulfur and nitrogen species
Description: as §1
Angeli's salt was stored at −20° C. Stocks of Angeli's salt were added as a 10 mM solution in 10 mM KOH (for stability). […]
Hydroxyl radical was prepared by first preparing a 10 mM solution of Mohr's Salt (Fe(NH4)2(SO4)2.6H2O in 0.1 M HCl which was degassed by bubbling nitrogen gas for 20 minutes through the solution. A solution of the probe was made in buffer and degassed and the initial reading was taken. 10 μL of 10 mM Hydrogen Peroxide and Mohr's salt solution giving a final volume of 1 mL (100 μM hydroxyl radical) were added and allowed to incubate at 37° C. for the duration of the selectivity assay with a septum on the cuvette. Iron(II) was prepared via the same procedure as hydroxyl radical only hydrogen peroxide was not added. […]

[5] = Competition assays against thiols for HNO; conditions: 10 μM probe, Angeli's salt 200 μM
Description: as §1, with “Statistics are compared to the control. *, p<0.05; ***, p<0.001; p<0.0001.” left out
In these experiments, 10 μM solutions of NitroxylFluor and various thiols such as L-cysteine (100 μM), N-acetyl-L-cysteine (100 μM), and GSH (1 mM) was treated with Angeli's salt (200 μM) (FIG. 2d).

[6] = system: MDA-MB-231 cells; assay: Confocal imaging of HNO in living cells; assay type: cell-based, human
Description: FIG. 3. Confocal microscopy images acquired by irradiation of MDA-MB-231 cells treated with 0 μM (vehicle control), 250 μM, 500 μM, 1000 μM Angeli's salt for 15 mins at 25° C. with a 488 nm laser. Images taken through a 40× oil immersion objective. Scale bar represents 20 μm. b) Quantification of imaging data. *, p<0.05; ***, p<0.001; p<0.0001.
FIG. 8. Representative time course imaging of MDA-MB-231 cells stained with 4 μM NitroxylFluor for 15 minutes followed by replacement with fresh PBS with no probe. Angeli's salt (200 μM) was added 5 minutes after PBS was replaced. Images were taken through a 40× oil immersion objective at 0, 10, and 20 mins after AS addition at 25° C. via irradiation with a 488 nm laser. Scale bar represents 20 μm.
MDA-MB-231 adenocarcinoma cells were acquired from Prof. David J. Shapiro (Biochemistry, UIUC). Cells were cultured in phenol-red free Dulbecco's modified eagle medium (DMEM, Corning) supplemented with 10% fetal bovine serum (FBS, Sigma Aldrich), and 1% penicillin/streptomycin (Corning). Cells were incubated at 37° C. with 5% CO2. Experiments were performed in 8-well chambered cover glasses (Lab-Tek, Thermo Scientific).
An 8-well chambered cover glass was seeded with 0.4 mL of the above-mentioned cells at a density of 200,000 cells/mL. Cells were imaged at roughly 80% confluency (24 hours after seeding). Media was removed from each well and cells were washed with 200 μL PBS. The PBS was removed from the wells and replaced with 198 μL. 2 μL of 200 μM NitroxylFluor in PBS was added and gently stirred before being allowed to incubate at 37° C. with 5% CO2 for 15 minutes. PBS was then removed from the wells and replaced with 195 μL, 190 μL, or 180 μL PBS. The remaining volume to 200 μL was filled with 10 mM Angeli's salt in 10 mM KOH (or 10 mM KOH in the vehicle control) to give final concentrations of 0.250 mM, 0.500 mM, or 1 mM Angeli's salt. […] 3-5 images of each well were taken and their mean fluorescence (as reported by ImageJ) was averaged to give an average value for each well. […]

[7] = system: MDA-MB-231 cells; assay: MTT cytotoxicity assay; assay type: cell-based, human
Description: FIG. 9. MTT assay to determine the cytotoxicity of NitroxylFluor at 4 μM over 3, 6, and 24 hours. Detailed protocol available on page 3 of this supporting information document.
A 96-well plate was seeded with 20,000 cells per well (200 μL of 150,000 cells/mL) and incubated at 37° C. with 5% CO2 for 24 h (˜70% confluent). […] After 3, 6, and 24 h the media was removed and replaced with […] 20:1 mixture of FBS-free DMEM and (3-(4,5-dimethylthiazol-2-yl)-2,5-diphenyl-tetrazolium bromide (MTT, 5 mg/mL stock in PBS). The cells were incubated for 4 h under the same conditions and then the medium was removed and replaced with DMSO ([…]). The absorbance of each well was recorded at 555 nm on a microplate reader. Viability was calculated by the absorbance relative to the vehicle control. Results pictured in FIG. 7.

[8] = Thiol pKa by UV/vis absorbance at 230 nm; assay type: physicochemical; conditions: Britton-Robinson Universal Buffer
Text: Assay was completed by measuring the absorbance at 230 nm as described by Tajc et al. (J Am Chem Soc 2004, 126, 10508). Each reading was taken in triplicate and averaged in the respective pH Britton-Robinson Universal Buffer.

N[C@@H](CCC(=O)N[C@@H](CS)C(=O)NCC(=O)O)C(=O)O [GSH, glutathione]
reported pKa [1]: 9.42

Cc1cc(=O)oc2cc(OC(=O)C(C)(C)S)ccc12 [NB-2]
fluorescence turn-on response with Angeli's salt ([2]; 100 μM Angeli's salt, PBS, 37° C., 10 minutes after treatment): 3.5 fold
background fluorescence turn-on (hydrolysis / alpha-thiolactonization) ([3]; vehicle control, 37° C., after 10 minutes): 1.6 fold

CC(C)(S)C(=O)Oc1c(Cl)cc2c(c1Cl)Oc1cc(O)ccc1C21OCc2ccccc21 (stereo not shown) [NitroxylFluor]
fluorescent turn-on response on reaction with HNO ([2]; NitroxylFluor 2 μM, Angeli's salt 100 μM, in a matter of seconds): 16 fold
change in fluorescence with reactive sulfur and nitrogen species ([4]; e.g. H2S, NO, 100 μM, 15-minute incubation at 37° C.): no change in fluorescence
cross-reactivity with oxidants ([4]; oxidants incl. H2O2, 100 μM, 15 minutes): not observed
fluorescent turn-on response in presence of GSH ([5]; GSH 1 mM): 3.9 fold
fluorescence increase in competition with L-cysteine ([5]; L-cysteine 100 μM): 16.2 fold
fluorescence enhancement in competition with N-acetyl-L-cysteine ([5]; N-acetyl-L-cysteine 100 μM): 9.8 fold
fluorescence enhancement at lowest Angeli's salt concentration ([6]; 250 μM Angeli's salt, 15 mins): statistically significant enhancement
fluorescence during time-lapse imaging ([6]; 500 μM Angeli's salt, images every 1 min for 20 mins): gradual increase in the fluorescence
fluorescence turn-on response in cells ([6]; Angeli's salt 250 μM to 1000 μM, after 15 mins): dose-dependent fluorescence turn-on response
cytotoxicity (MTT) versus DMSO control ([7]; 4 μM, 3, 6, and 24 hours, n=3): No time point has significant difference from the DMSO control
cytotoxicity (MTT) ([7]; 10 μM probe, 3, 6, and 24 h): Cytotoxicity at any time point was not observe

CSC(C)(C)C(=O)Oc1ccc2c(C)cc(=O)oc2c1 [S-Methyl NitroxylBlue-2, reference compound]
hydrolysis after incubation in aqueous media ([3]; 25° C., 15 minutes): No hydrolysis was observed

COC(=O)C(C)(C)S [compound 16, Methyl 2-mercapto-2-methylpropanoate]
pKa [8]: 8.01
